In patent publication US9175007B2, “IRAK inhibitors and uses thereof” (Nimbus Iris, Inc., priority 2013, dated 2015):

Target: T1, IRAK4 (Homo sapiens, UniProt Q9NWZ3)
T1 construct: purchased CARNA Bioscience 09-145
T1 sequence (Q9NWZ3 1-460): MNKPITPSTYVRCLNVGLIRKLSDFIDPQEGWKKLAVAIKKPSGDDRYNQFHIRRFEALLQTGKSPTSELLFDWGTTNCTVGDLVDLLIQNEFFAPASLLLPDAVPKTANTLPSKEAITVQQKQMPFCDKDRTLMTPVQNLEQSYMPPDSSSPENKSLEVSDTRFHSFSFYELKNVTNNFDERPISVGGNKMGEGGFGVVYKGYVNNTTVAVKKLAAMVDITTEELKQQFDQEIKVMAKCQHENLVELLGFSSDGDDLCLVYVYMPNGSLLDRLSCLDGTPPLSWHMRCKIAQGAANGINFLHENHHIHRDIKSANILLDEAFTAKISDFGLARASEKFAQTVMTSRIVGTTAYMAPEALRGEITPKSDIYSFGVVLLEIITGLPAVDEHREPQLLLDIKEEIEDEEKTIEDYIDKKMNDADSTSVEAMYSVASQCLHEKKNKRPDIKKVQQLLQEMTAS
Experiment: IRAK-4 activity inhibition assay (Caliper)
Assay type: biochemical
Conditions: 3.5 nM IRAK4, 37 μM ATP, 1.5 μM Peptide 8
Experimental: A 1× kinase base buffer was prepared from 50 mM HEPES, pH 7.5 and 0.0015% Brij-35. A stop buffer was prepared from 100 mM HEPES, pH 7.5, 0.015% Brij-35, 0.2% Coating Reagent #3, and 50 mM EDTA.
Test compound was diluted to 50× of the final desired highest inhibitor concentration in reaction by 100% DMSO. 100 ul of this compound dilution was transferred to a well in a 96-well plate.
Test compound was serially diluted by transferring 30 μl to 60 μl of 100% DMSO in the next well and so forth for a total of 10 concentrations. 100 μl of 100% DMSO was added to two empty wells for no compound control and no enzyme control in the same 96-well plate.
A new 96-well plate was marked as intermediate plate. 5 μl of compound serial dilution was transferred from source plate to the corresponding wells of the intermediate plate. 45 μl of 1× kinase base buffer (KB buffer) was added to each well of the intermediate plate. The intermediate plate was placed for 10 min on a shaker.
5 μl of each well was transferred from the 96-well intermediate plate to a 384-well plate in duplicates. For example, A1 of the 96-well plate is transferred to A1 and A2 of the 384-well plate. A2 of the 96-well plate is transferred to A3 and A4 of the 384-well plate, and so on.
IRAK4 and DTT in 1× kinase base buffer was added. The 2.5× enzyme mix contained 8.8 nM IRAK4 and 5 mM DTT.
Peptide 8, ATP, MgCl2 and MnCl2 were added in the 1× kinase base buffer. The 2.5× peptide mix contained 3.75 μM peptide 8, 92.5 μM ATP, 12.5 mM MgCl2 and 2.5 mM MnCl2.
Assay plate already contained 5 μl of compound in 10% DMSO. Added 10 μl of 2.5× enzyme solution to each well of the 384-well assay plate, except no enzyme control wells. The final concentration of IRAK4 in reaction was 3.5 nM. Added 10 μl of 1× kinase base buffer to no enzyme control wells in the assay plate. Incubated at room temperature for 10 min.
Added 10 μl of 2.5× peptide solution to each well of the 384-well assay plate. The final concentration of Peptide 8 and ATP was 1.5 μM and 37 μM, respectively. Incubated at 28° C. for 40 minutes. Added 25 μl of stop buffer to stop reaction. Collected data on Caliper.
Copied conversion % data from Caliper program. Converted conversion % values to percent inhibition values. Percent inhibition=(max-conversion %)/(max-min)*100, where “max” means the conversion % of DMSO control and “min” means the conversion % of no enzyme control.

Row | Compound | IC50
1 | CN(C)[C@H]1CC[C@H](Oc2nc(Nc3ccccc3)nc3sc4c(c23)CCC4)CC1 [Compound I-2, 12-[[4-(dimethylamino)cyclohexyl]oxy]-N-phenyl-7-thia-9,11-diazatricyclo[6.4.0.0[2,6]]dodeca-1(8),2(6),9,11-tetraen-10-amine] | ≤ 5 µM
2 | c1ccc(Nc2nc(N[C@H]3CC[C@H](N4CCOCC4)CC3)c3c4c(sc3n2)CCCC4)cc1 [Compound I-7, 3-N-[4-(morpholin-4-yl)cyclohexyl]-5-N-phenyl-8-thia-4,6-diazatricyclo[7.4.0.0[2,7]]trideca-1(9),2,4,6-tetraene-3,5-diamine] | ≤ 5 µM
3 | CN1CCC(c2ccc(Nc3nc(N[C@H]4CC[C@H](N5CCOCC5)CC4)c4c5c(sc4n3)CCC5)cc2)CC1 [Compound I-10, 10-N-[4-(1-methylpiperidin-4-yl)phenyl]-12-N-[4-(morpholin-4-yl)cyclohexyl]-7-thia-9,11-diazatricyclo[6.4.0.0[2,6]]dodeca-1(8),2(6),9,11-tetraene-10,12-diamine] | ≤ 5 µM
4 | CN(C)[C@H]1CC[C@H](Oc2nc(Nc3ccc(N4CCNCC4)cc3)nc3sc4c(c23)CCC4)CC1 [Compound I-13, 12-[[4-(dimethylamino)cyclohexyl]oxy]-N-[4-(piperazin-1-yl)phenyl]-7-thia-9,11-diazatricyclo[6.4.0.0[2,6]]dodeca-1(8),2(6),9,11-tetraen-10-amine] | ≤ 5 µM
5 | Cn1cc(Nc2nc(NC3CCCCC3)c3c4c(sc3n2)CCC4)cn1 [Compound I-15, 12-N-cyclohexyl-10-N-(1-methyl-1H-pyrazol-4-yl)-7-thia-9,11-diazatricyclo[6.4.0.0[2,6]]dodeca-1(8),2(6),9,11-tetraene-10,12-diamine] | ≤ 5 µM
6 | Cn1cc(Nc2nc(N[C@H]3CC[C@H](O)CC3)c3c4c(sc3n2)CCC4)cn1 [Compound I-16, 4-([10-[(1-methyl-1H-pyrazol-4-yl)amino]-7-thia-9,11-diazatricyclo[6.4.0.0[2,6]]dodeca-1(8),2(6),9,11-tetraen-12-yl]amino)cyclohexan-1-ol] | ≤ 5 µM
7 | CN(C)[C@H]1CC[C@H](Oc2nc(Nc3ccccc3)nc3sc4c(c23)C(CC(N)=O)CC4)CC1 (stereo partly drawn) [Compound I-17, 2-(12-[[4-(dimethylamino)cyclohexyl]oxy]-10-(phenylamino)-7-thia-9,11-diazatricyclo[6.4.0.0^[2,6]]dodeca-1(12),2(6),8,10-tetraen-3-yl)acetamide] | ≤ 5 µM
8 | CN(C)[C@H]1CC[C@H](Oc2nc(Nc3ccc(N4CCNCC4)cc3)nc3sc4c(c23)C(CC(N)=O)CC4)CC1 (stereo partly drawn) [Compound I-18, 2-(12-[[4-(dimethylamino)cyclohexyl]oxy]-10-[[4-(piperazin-1-yl)phenyl]amino]-7-thia-9,11-diazatricyclo[6.4.0.0[2,6]]dodeca-1(12),2(6),8,10-tetraen-3-yl)acetamide] | ≤ 5 µM
9 | Cn1cc(Nc2nc(O[C@H]3CC[C@H](N(C)C)CC3)c3c4c(sc3n2)CCC4CC(N)=O)cn1 (stereo partly drawn) [Compound I-20, 2-(12-[[4-(dimethylamino)cyclohexyl]oxy]-10-[(1-methyl-1H-pyrazol-4-yl)amino]-7-thia-9,11-diazatricyclo[6.4.0.0[2,6]]dodeca-1(8),2(6),9,11-tetraen-3-yl)acetamide] | ≤ 5 µM
10 | Cn1cc(Nc2nc(O[C@H]3CC[C@H](N(C)C)CC3)c3c4c(sc3n2)CC[C@H]4CC(N)=O)cn1 [Compound I-21, 2-[(3S)-12-[[4-(dimethylamino)cyclohexyl]oxy]-10-[(1-methyl-1H-pyrazol-4-yl)amino]-7-thia-9,11-diazatricyclo[6.4.0.0[2,6]]dodeca-1(8),2(6),9,11-tetraen-3-yl]acetamide] | ≤ 5 µM
11 | CN1CCC(c2ccc(Nc3nc(N[C@H]4CC[C@H](N(C)C)CC4)c4c5c(sc4n3)CCC5)cc2)CC1 [Compound I-67, N4-((1r,4r)-4-(dimethylamino)cyclohexyl)-N2-(4-(1-methylpiperidin-4-yl)phenyl)-6,7-dihydro-5H-cyclopenta[4,5]thieno[2,3-d]pyrimidine-2,4-diamine] | ≤ 5 µM
12 | CN1CCN(c2ccc(Nc3nc(O[C@H]4CC[C@H](N(C)C)CC4)c4c5c(sc4n3)CCC5)cc2)CC1 [Compound I-68, 12-[[4-(dimethylamino)cyclohexyl]oxy]-N-[4-(4-methylpiperazin-1-yl)phenyl]-7-thia-9,11-diazatricyclo[6.4.0.0[2,6]]dodeca-1(8),2(6),9,11-tetraen-10-amine] | ≤ 5 µM

Continued, values first:

Row | IC50 | Compound
13 | ≤ 5 µM | c1ccc(Nc2nc(N[C@H]3CC[C@H](N4CCOCC4)CC3)c3c4c(sc3n2)CCC4)cc1 [Compound I-1, N4-((1r,4r)-4-morpholinocyclohexyl)-N2-phenyl-6,7-dihydro-5H-cyclopenta[4,5]thieno[2,3-d]pyrimidine-2,4-diamine]
14 | ≤ 5 µM | Fc1cccc(Nc2nc(N[C@H]3CC[C@H](N4CCOCC4)CC3)c3c4c(sc3n2)CCC4)c1 [Compound I-3, N2-(3-fluorophenyl)-N4-((1r,4r)-4-morpholinocyclohexyl)-6,7-dihydro-5H-cyclopenta[4,5]thieno[2,3-d]pyrimidine-2,4-diamine]
15 | ≤ 5 µM | Cc1cccc(Nc2nc(N[C@H]3CC[C@H](N4CCOCC4)CC3)c3c4c(sc3n2)CCC4)c1 [Compound I-4, N4-((1r,4r)-4-morpholinocyclohexyl)-N2-(m-tolyl)-6,7-dihydro-5H-cyclopenta[4,5]thieno[2,3-d]pyrimidine-2,4-diamine]
16 | ≤ 5 µM | COc1cccc(Nc2nc(N[C@H]3CC[C@H](N4CCOCC4)CC3)c3c4c(sc3n2)CCC4)c1 [Compound I-5, 10-N-(3-methoxyphenyl)-12-N-[4-(morpholin-4-yl)cyclohexyl]-7-thia-9,11-diazatricyclo[6.4.0.0^[2,6]]dodeca-1(8),2(6),9,11-tetraene-10,12-diamine]
17 | 20 to 50 µM | Cc1ccc(Nc2nc(N[C@H]3CC[C@H](N4CCOCC4)CC3)c3c4c(sc3n2)CCC4)cc1 [Compound I-6, N4-((1r,4r)-4-morpholinocyclohexyl)-N2-(p-tolyl)-6,7-dihydro-5H-cyclopenta[4,5]thieno[2,3-d]pyrimidine-2,4-diamine]
18 | 5 to 20 µM | c1coc(Nc2nc(N[C@H]3CC[C@H](N4CCOCC4)CC3)c3c4c(sc3n2)CCCC4)n1 [Compound I-8, 3-N-[4-(morpholin-4-yl)cyclohexyl]-5-N-(1,3-oxazol-2-yl)-8-thia-4,6-diazatricyclo[7.4.0.0[2,7]]trideca-1(9),2(7),3,5-tetraene-3,5-diamine]
19 | 5 to 20 µM | c1coc(Nc2nc(N[C@H]3CC[C@H](N4CCOCC4)CC3)c3c4c(sc3n2)CCC4)n1 [Compound I-9, 12-N-[4-(morpholin-4-yl)cyclohexyl]-10-N-(1,3-oxazol-2-yl)-7-thia-9,11-diazatricyclo[6.4.0.0[2,6]]dodeca-1(8),2(6),9,11-tetraene-10,12-diamine]
20 | 20 to 50 µM | c1c[nH]c(Nc2nc(N[C@H]3CC[C@H](N4CCOCC4)CC3)c3c4c(sc3n2)CCC4)n1 [Compound I-11, 10-N-(1H-imidazol-2-yl)-12-N-[4-(morpholin-4-yl)cyclohexyl]-7-thia-9,11-diazatricyclo[6.4.0.0[2,6]]dodeca-1(8),2(6),9,11-tetraene-10,12-diamine]
21 | 20 to 50 µM | c1c[nH]c(Nc2nc(N[C@H]3CC[C@H](N4CCOCC4)CC3)c3c4c(sc3n2)CCCC4)n1 [Compound I-12, 5-N-(1H-imidazol-2-yl)-3-N-[4-(morpholin-4-yl)cyclohexyl]-8-thia-4,6-diazatricyclo[7.4.0.0[2,7]]trideca-1(9),2(7),3,5-tetraene-3,5-diamine]
